The experiment in a line: direct peptide reactivity assay (DPRA), in-chemico, unbound peptide detected with Ellman's reagent. Particulars: 24 h reaction; allergen 5 mM, peptide 0.5 mM; absorbance at 415 nm with DTNB; urushiol structures I-V; n = 3; FIG. 2. How it is done: The absorbance is plotted on the y-axis. The peptide-allergen reactions were realized according to a direct peptide reactivity assay. The test is referred to as the in-chemico method, that is to say no cells are used, but a chemical reaction is carried out.
The direct peptide reaction assay (DPRA) is an OECD-validated test method.
The native, still-unbound peptide is detected by reaction with Ellman’s reagent and corresponding absorbance measurement. The direct peptide reactivity assay (DPRA) is a chemical method for predicting epidermal protein binding. DPRA uses for example HPLC to measure the depletion of peptides in solution after exposure to test chemicals.
RFAACAA was selected as an example of a peptide of the invention.
In the DPRA method, the absorbance at 415 nm is determined as the measured variable.
The allergen concentration is in the investigations carried out a standard 5 mM and thus 10 times the concentration of the peptide used (0.5 mM).
The reaction courses shown were determined colorimetrically through the reaction of the peptide with Ellmann’s reagent in a photometer. In this reaction, DTNB ((5,5′-dithiobis-2-nitrobenzoic acid, Ellmann’s reagent) is cleaved and attached to the SH residue of the amino acid cysteine of the peptides of the invention (RFAACAA).
The SH radical is at the same time the reactive binding site of the peptide with the allergens. […]

In the case of RFAACAA [Arg Phe Ala Ala Cys Ala Ala], the “reactivity of peptides with urushiol allergens (fall in peptide, protective activity)” value is given as “very high reactivity”. Turning to “acetyl-arginine-phenylalanine-alanine-alanine-cysteine-alanine-alanine [Ac-RFAACAA]”, the “reactivity of peptides with urushiol allergens (fall in peptide, protective activity)” value is on record as “very high reactivity”.
